Source: patent US12215118B2, “Quinone methide analog signal amplification” (Ventana Medical Systems, Inc., priority 2014, dated 2025)

How the values were obtained:
[1] = tested on: BCL6 on FFPE tonsil tissue; assay: AP-based CARD IHC with biotinylated QM precursor followed by DAB detection
Procedure: Detection 1—HRP DAB. After incubating with the AP conjugate the slides were washed with Special Stains wash (VMSI #860-015). QMP reagents were dissolved in 100 mM CHES (3-cyclo-hexylamino-ethylsulfonic acid), pH 10.0, 0.05% Brij-35. QMP turnover was achieved by adding 100 μL of AP Enhancer (VMSI #253-2182) followed by 100 μL of hapten labeled QMP and incubating at 37° C. for 16 minutes. Compound 29 is an exemplary hapten-QMP that could be used according to this method. The deposited hapten was subsequently bound by a mouse-anti-hapten-HRP conjugate (or streptavidin-HRP) (37° C.; 8 minutes), and visualized via a brown precipitate produced by HRP upon the addition of hydrogen peroxide and DAB (37° C.; 8 minutes). The DAB was toned by the addition of copper sulfate (37° C.; 4 minutes). The stained tissue sections were counterstained with modified Mayer's hematoxylin (Hematoxylin II, VMSI #790-2208) (37° C.; 4 minutes) and then incubated with Bluing Reagent (VMSI #760-2037) (37° C.; 4 minutes). The slides were then dehydrated through a graded ethanol series, cleared with xylene, and manually cover-slipped.
Both compounds utilize fluoride as the leaving group, but the reactivity of the QM derived from difluoro compound 58 should be considerably lower than monofluoro 7 due to the electronic stabilization offered by the geminal fluorine atom. […] Therefore, the difluoro QM precursor compound 58 was evaluated first for IHC staining performance on FFPE tissue using the nuclear marker BCL6 on FFPE tonsil tissue as a model system. The biotin-labeled difluoro QM precursor successfully bound to the sample as evidenced by subsequent biotin visualization using diaminobenzidine (DAB) detection. FIG. 18 provides microphotographs illustrating the detection level at varying concentrations of the difluoro QM precursor in a Tris buffer at pH=8.5 (panel A—DAB control, panel B—1 μM, panel C—10 μM and panel D—20 μM). In addition, significant amplification of signal was observed compared to the DAB control sample when on-slide concentrations of difluoro QM precursor compound 58 greater than […] were utilized.
To test the effect of pH on signal diffusion, difluoro QM precursor compound 58 was deposited as before at various pH levels within the working range for AP (7-12 with two shoulders of maximal activity at pH=8.5 and 11). The nuclear marker BCL6 on FFPE tonsil tissue was again chosen as the model. Positive staining was observed across the entire pH range, although a balance between overall signal and diffusion was seen. FIG. 19, panels A-H provide microphotographs of the detection levels of 20 µM QM precursor in Tris buffer with varying pH: panel A—DAB control; panel B pH=7.0; panel C pH=8.0; panel D pH=8.5; panel E pH=9.0; panel F pH=10.0; panel G pH=11.0; panel H pH=12.0. The diffusion appears to decrease with increasing pH. […] The level of amplification increased only as the pH rose to 8.5 and then decreased gradually over the rest of the range. This effect may be due to a combination of enzyme activity and the population of QM quenchers in the reaction media. At pH levels well below the optimal AP reaction conditions (7.0), the activity of AP was depressed, resulting in low signal. As the pH increased (8.0-8.5) but remained near the pKa of Tris (8.1), the activity of AP increased at a faster rate than the population of quenchers in the reaction media, leading to a significant increase in signal. Raising the pH further (9-10) increased the quencher population while decreasing AP activity, resulting in a decrease of signal. Although AP had maximal activity at pH 11 in Tris, a slight decrease in staining intensity was observed, most likely due to the excessively high population of quenchers that could not be overcome by the increased AP activity (raising the pH from 8.5 to 11 increases [Tris base] about 50%, with AP activity increasing by only about 20%). […]

[2] = tested on: Bcl2 on FFPE tonsil tissue; assay: HRP DAB amplified by QMP-biotin with different linkers; details: 100 nM, CHES pH 10.0, different linkers
Procedure: The tissue was deparaffinized and retrieved as described in the general procedures. Mouse-anti-Bcl-2 antibody incubation (37° C., 16 minutes) and washing were followed by secondary antibody incubation with a goat polyclonal anti-mouse antibody conjugated to AP (37° C.; 12 minutes). After incubating with the AP conjugate the slides were washed with Special Stains wash. Monofluoro QMP-biotin (with aniline amide (FIG. 23(A)), benzoic amide (FIG. 23(B)) or tyramide amide linker (FIG. 23(C)) (100 nM) was dissolved in 100 mM CHES, pH 10.0, 0.05% Brij-35 to a final concentration of 100 nM. QMP turnover was achieved by adding 100 μL of AP Enhancer followed by 100 μL of biotin labeled QMP and incubating at 37° C. for 16 minutes. The deposited biotin was subsequently bound by a streptavidin-HRP conjugate (37° C.; 8 minutes), and visualized via a brown precipitate produced by HRP upon the addition of hydrogen peroxide and DAB (37° C.; 8 minutes). The DAB was toned by the addition of copper sulfate (37° C.; 4 minutes). The stained tissue sections were counterstained with modified Mayer's hematoxylin (37° C.; 4 minutes) and then incubated with Bluing Reagent (37° C.; 4 minutes). They were then dehydrated through a graded ethanol series, cleared with xylene, and manually cover-slipped.

[3] = tested on: alkaline phosphatase (AP); assay: Trapping of the QM intermediate with Tris in solution, HPLC-MS; assay type: biochemical; details: pH 10 Tris buffer
Procedure: To probe the mechanism of staining and quenching, an attempt was made to trap the QM intermediate formed by monofluoro QM precursor 7 in solution-phase under similar conditions to those utilized in the staining experiments (FIG. 26). QM precursor 7 was dissolved in pH 10 Tris buffer followed by addition of a catalytic amount of AP. The reaction progress was monitored by HPLC-MS (FIG. 27, panels A-C). Within 10 minutes, complete conversion to the Tris adduct 7-tris was observed (panel C).

Row | SMILES | diffusion and off-target staining ([1]; 250 nM, Tris buffer, pH of 10) | concentration required to give the desired level of amplification ([1]; pH 8.5 in Tris buffer) | overall diffusion compared to difluoro QM precursor 58 ([1]; pH 8.5 in Tris buffer) | signal resolution [2] | time to complete conversion to the Tris adduct ([3]; catalytic amount of AP) | reaction in the absence of AP ([3]; no AP)
1 | O=C(CCCCC1SCC2NC(=O)NC21)NCCCCCC(=O)Nc1ccc(OP(=O)(O)O)c(CF)c1 (stereo not shown) [Compound 7, 2-(fluoromethyl)-4-(6-(5-(2-oxohexahydro-1H-thieno[3,4-d]imidazol-4-yl)pentanamido)hexanamido)phenyl dihydrogen phosphate] | nearly eliminated | 250 nM | greatly reduced | well resolved signals | ≤ 10 min | no reaction took place
2 | O=C(CCCCC1SCC2NC(=O)NC21)NCCc1ccc(OP(=O)(O)O)c(CF)c1 (stereo not shown) [Compound 14, 2-(fluoromethyl)-4-(2-(5-(2-oxohexahydro-1H-thieno[3,4-d]imidazol-4-yl)pentanamido)ethyl)phenyl dihydrogen phosphate] | – | – | – | well resolved signals | – | –
